Results published in patent US20210238192A1, “VASCULAR ADHESION PROTEIN-1 (VAP-1) MODULATORS AND THERAPEUTIC USES THEREOF” (Blade Therapeutics, Inc., priority 2018, published 2021).
pIC50: −log10 of the molar value. Structures can show the parent of a compound that is named as a salt.

Columns and labels:
Type in all cases: biochemical
Human VAP-1 = molecular target: T1, Human VAP-1 (Homo sapiens, UniProt Q16853); experiment: VAP-1 inhibition assay (Amplex Red continuous fluorescence assay); conditions: 30 min pre-incubation at 37° C.; substrate benzylamine; read-out: Human VAP-1 IC50
T1 sequence (Q16853 1-763): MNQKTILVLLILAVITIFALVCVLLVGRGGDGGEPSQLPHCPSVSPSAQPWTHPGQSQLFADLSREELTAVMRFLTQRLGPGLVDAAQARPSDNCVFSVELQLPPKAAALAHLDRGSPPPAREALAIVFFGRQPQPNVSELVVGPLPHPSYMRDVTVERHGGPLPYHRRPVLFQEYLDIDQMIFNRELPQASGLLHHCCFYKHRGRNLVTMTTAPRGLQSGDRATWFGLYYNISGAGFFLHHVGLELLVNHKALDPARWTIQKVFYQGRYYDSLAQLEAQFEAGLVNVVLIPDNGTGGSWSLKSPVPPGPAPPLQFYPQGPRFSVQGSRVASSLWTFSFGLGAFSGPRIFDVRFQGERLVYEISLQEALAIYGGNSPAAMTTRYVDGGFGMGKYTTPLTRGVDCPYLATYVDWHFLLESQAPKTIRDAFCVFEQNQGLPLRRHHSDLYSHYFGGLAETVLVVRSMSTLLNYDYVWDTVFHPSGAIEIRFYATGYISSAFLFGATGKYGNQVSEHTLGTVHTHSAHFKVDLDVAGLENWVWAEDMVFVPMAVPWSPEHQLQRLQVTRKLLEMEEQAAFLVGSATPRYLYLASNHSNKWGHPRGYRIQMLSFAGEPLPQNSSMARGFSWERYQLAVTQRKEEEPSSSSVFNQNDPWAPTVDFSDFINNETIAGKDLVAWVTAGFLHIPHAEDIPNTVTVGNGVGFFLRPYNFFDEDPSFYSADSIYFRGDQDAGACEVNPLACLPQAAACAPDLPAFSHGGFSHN
In short: (§1)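 Continuous Amplex Red/HRP fluorescence read of H2O2 (ex/em 510/565 nm, 5 min). Substrates and buffers: VAP-1 benzylamine, […] sodium phosphate pH 7.4, 30 min 37° C preincubation; MAO-A tyramine and MAO-B benzylamine, same buffer, room temp; DAO histamine, 50 mM HEPES pH 7.5, room temp. IC50 from 4-parameter fit of rates.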

Human MAO-A = molecular target: T2, Human MAO-A (Homo sapiens, UniProt P21397); experiment: MAO-A inhibition (Amplex Red continuous fluorescence assay); conditions: 30 min pre-incubation at room temp; substrate tyramine; read-out: Human MAO-A IC50
T2 sequence (P21397 1-527): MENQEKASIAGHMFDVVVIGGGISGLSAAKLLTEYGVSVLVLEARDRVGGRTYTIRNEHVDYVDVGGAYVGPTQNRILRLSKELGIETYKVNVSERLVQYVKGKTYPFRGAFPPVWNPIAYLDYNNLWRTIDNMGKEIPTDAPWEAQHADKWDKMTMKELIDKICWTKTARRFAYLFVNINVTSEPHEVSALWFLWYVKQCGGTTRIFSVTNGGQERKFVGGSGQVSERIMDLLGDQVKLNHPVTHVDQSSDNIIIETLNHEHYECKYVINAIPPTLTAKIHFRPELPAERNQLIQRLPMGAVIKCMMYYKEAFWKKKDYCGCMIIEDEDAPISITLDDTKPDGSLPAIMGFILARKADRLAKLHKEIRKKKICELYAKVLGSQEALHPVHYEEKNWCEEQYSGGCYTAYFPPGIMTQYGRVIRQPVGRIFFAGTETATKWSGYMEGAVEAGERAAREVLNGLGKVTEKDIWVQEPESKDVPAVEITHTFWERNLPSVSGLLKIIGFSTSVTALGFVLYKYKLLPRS
In short: as §1

Human MAO-B = molecular target: T3, Human MAO-B (Homo sapiens, UniProt P27338); experiment: MAO-B inhibition (Amplex Red continuous fluorescence assay); conditions: 30 min pre-incubation at room temp; substrate benzylamine; read-out: Human MAO-B IC50
T3 sequence (P27338 1-520): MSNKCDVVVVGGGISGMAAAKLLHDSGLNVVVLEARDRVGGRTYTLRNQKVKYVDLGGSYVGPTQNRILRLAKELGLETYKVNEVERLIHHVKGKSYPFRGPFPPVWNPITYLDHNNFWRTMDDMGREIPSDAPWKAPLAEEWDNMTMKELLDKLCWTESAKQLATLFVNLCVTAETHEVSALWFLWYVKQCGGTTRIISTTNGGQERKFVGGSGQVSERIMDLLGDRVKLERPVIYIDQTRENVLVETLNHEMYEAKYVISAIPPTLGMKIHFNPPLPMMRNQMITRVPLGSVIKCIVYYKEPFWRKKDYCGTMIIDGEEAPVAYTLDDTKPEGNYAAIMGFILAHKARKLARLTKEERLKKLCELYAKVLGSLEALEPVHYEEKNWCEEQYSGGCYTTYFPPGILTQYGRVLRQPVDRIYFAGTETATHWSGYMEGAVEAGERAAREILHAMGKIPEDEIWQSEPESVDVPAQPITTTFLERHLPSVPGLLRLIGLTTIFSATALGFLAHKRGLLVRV
In short: as §1

Human DAO = molecular target: T4, Human DAO (Homo sapiens, UniProt P19801); experiment: DAO inhibition (Amplex Red continuous fluorescence assay); conditions: 30 min pre-incubation at room temp; substrate histamine; read-out: Human DAO IC50
T4 sequence (P19801 20-751): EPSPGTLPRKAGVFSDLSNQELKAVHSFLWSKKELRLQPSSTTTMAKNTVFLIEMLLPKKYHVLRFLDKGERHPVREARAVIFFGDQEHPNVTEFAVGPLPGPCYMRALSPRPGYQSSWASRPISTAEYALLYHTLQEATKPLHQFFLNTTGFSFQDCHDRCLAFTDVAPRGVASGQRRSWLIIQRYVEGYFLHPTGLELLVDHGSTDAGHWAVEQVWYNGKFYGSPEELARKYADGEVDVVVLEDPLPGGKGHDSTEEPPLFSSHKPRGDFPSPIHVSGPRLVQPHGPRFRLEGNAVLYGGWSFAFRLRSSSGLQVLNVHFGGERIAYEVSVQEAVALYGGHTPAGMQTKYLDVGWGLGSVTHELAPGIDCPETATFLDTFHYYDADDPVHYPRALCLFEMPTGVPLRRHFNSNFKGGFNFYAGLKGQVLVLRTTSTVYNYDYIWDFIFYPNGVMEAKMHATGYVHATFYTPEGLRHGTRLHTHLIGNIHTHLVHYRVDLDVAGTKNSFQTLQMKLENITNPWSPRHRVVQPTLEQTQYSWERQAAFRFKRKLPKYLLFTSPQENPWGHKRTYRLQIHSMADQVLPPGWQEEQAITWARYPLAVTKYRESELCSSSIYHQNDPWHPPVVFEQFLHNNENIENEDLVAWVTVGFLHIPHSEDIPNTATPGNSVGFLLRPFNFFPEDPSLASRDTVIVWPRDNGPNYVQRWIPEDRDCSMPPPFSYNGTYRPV
In short: as §1

Row | Compound | pIC50 (Human VAP-1) | pIC50 (Human MAO-A) | pIC50 (Human MAO-B) | pIC50 (Human DAO)
1 | NC/C(=C/F)COc1ccc(-c2ncco2)cc1 [Compound 53, (Z)-3-fluoro-2-((4-(oxazol-2-yl)phenoxy)methyl)prop-2-en-1-amine hydrochloride] | > 5.52 | 5.00 to 5.52 | > 5.52 | > 5.52
2 | Cn1ccc(-c2ccc(OC/C(=C\F)CN)cc2)n1 [Compound 54, (Z)-3-fluoro-2-((4-(1-methyl-1H-pyrazol-3-yl)phenoxy)methyl)prop-2-en-1-amine hydrochloride] | > 5.52 | 5.00 to 5.52 | > 5.52 | > 5.52
3 | CCNC(=O)Oc1ccc(OC/C(=C/F)CN)cc1 [Compound 55, (E)-4-((2-(aminomethyl)-3-fluoroalkyl)oxy)phenyl ethylcarbamate] | > 5.52 | > 5.52 | > 5.52 | < 5.00
4 | CCNC(=O)Oc1ccc(OC/C(=C\F)CN)cc1 [Compound 56, (Z)-4-((2-(aminomethyl)-3-fluoroalkyl)oxy)phenyl ethylcarbamate] | > 5.52 | > 5.52 | > 5.52 | > 5.52
5 | NC/C(=C\F)Cn1ncc(-c2ccc(O)cc2)n1 [Compound 57, (E)-4-(2-(2-(aminomethyl)-3-fluoroalkyl)-2H-1,2,3-triazol-4-yl)phenol hydrochloride] | > 5.52 | > 5.52 | 5.00 to 5.52 | > 5.52
6 | NC/C(=C/F)Cn1ncc(-c2ccc(O)cc2)n1 [Compound 58, (Z)-4-(2-(2-(aminomethyl)-3-fluoroalkyl)-2H-1,2,3-triazol-4-yl)phenol hydrochloride] | > 5.52 | > 5.52 | > 5.52 | > 5.52
7 | CC(C)(C)NC(=O)c1ccc2c(ccn2C/C(=C/F)CN)c1 [Compound 59, (E)-1-(2-(aminomethyl)-3-fluoroalkyl)-N-(tert-butyl)-1H-indole-5-carboxamide] | > 5.52 | < 5.00 | > 5.52 | < 5.00
8 | NCC(=CF)COc1ccc(-c2cnn[nH]2)cc1 [Compound 60] | > 5.52 | > 5.52 | > 5.52 | > 5.52
9 | NC/C(=C\F)COc1ccc(C2=NCCN2)cc1 [Compound 61, (E)-2-((4-(4,5-dihydro-1H-imidazol-2-yl)phenoxy)methyl)-3-fluoroprop-2-en-1-amine] | > 5.52 | < 5.00 | < 5.00 | > 5.52
10 | NC/C(=C\F)CN1CCc2ccccc21 [Compound 62, (E)-3-fluoro-2-(indolin-1-ylmethyl)prop-2-en-1-amine hydrochloride] | > 5.52 | < 5.00 | < 5.00 | > 5.52
11 | NC/C(=C/F)COc1ccc(-c2ncc[nH]2)cc1 [Compound 63, (Z)-2-((4-(1H-imidazol-2-yl)phenoxy)methyl)-3-fluoroprop-2-en-1-amine] | > 5.52 | < 5.00 | < 5.00 | > 5.52
12 | NC/C(=C\F)COc1ccc(-c2ncn[nH]2)cc1 [Compound 64, (E)-2-((4-(1H-1,2,4-triazol-5-yl)phenoxy)methyl)-3-fluoroprop-2-en-1-amine] | > 5.52 | 5.00 to 5.52 | > 5.52 | > 5.52
13 | NC/C(=C\F)COC(=O)Nc1ccccc1 [Compound 65, (E)-2-(aminomethyl)-3-fluoroalkyl phenylcarbamate] | > 5.52 | 5.00 to 5.52 | 5.00 to 5.52 | > 5.52
14 | CCNC(=O)N(C)c1ccc(NC/C(=C/F)CN)cc1 [Compound 66, (E)-1-(4-((2-(aminomethyl)-3-fluoroalkyl)amino)phenyl)-3-ethyl-1-methylurea] | > 5.52 | < 5.00 | < 5.00 | < 5.00
15 | CCNC(=O)N(C)c1ccc(NC/C(=C\F)CN)cc1 [Compound 67, (Z)-1-(4-((2-(aminomethyl)-3-fluoroalkyl)amino)phenyl)-3-ethyl-1-methylurea] | > 5.52 | < 5.00 | 5.00 to 5.52 | 5.00 to 5.52
16 | NC/C(=C/F)COC(=O)Nc1ccccc1 [Compound 68, (Z)-2-(aminomethyl)-3-fluoroalkyl phenylcarbamate] | > 5.52 | > 5.52 | > 5.52 | > 5.52
17 | CC(C)(C)NC(=O)c1cccc2c1ccn2CC(=CF)CN [Compound 69, 1-(2-(aminomethyl)-3-fluoroalkyl)-N-(tert-butyl)-1H-indole-4-carboxamide] | > 5.52 | < 5.00 | > 5.52 | < 5.00
18 | CC(C)(C)NC(=O)c1cn(CC(=CF)CN)c2ccccc12 [Compound 70, 1-(2-(aminomethyl)-3-fluoroalkyl)-N-(tert-butyl)-1H-indole-3-carboxamide] | > 5.52 | > 5.52 | < 5.00 | < 5.00
19 | NC/C(=C\F)CNC(=O)Nc1ccccc1 [Compound 71] | > 5.52 | > 5.52 | < 5.00 | 5.00 to 5.52
20 | NC/C(=C/F)CNC(=O)Nc1ccccc1 [Compound 72] | > 5.52 | > 5.52 | < 5.00 | > 5.52
21 | NC/C(=C\F)COc1ccc(C(=O)NCCOCCOCCOCCOCCOCCOCCOCCOCCOCCOCCOCCNC(=O)CCCCC2SCC3NC(=O)NC32)cc1 (stereo not shown) [Compound 78] | > 5.52 | < 5.00 | < 5.00 | > 5.52
22 | NC/C(=C\F)COc1cnc(N2CC[C@H](O)C2)nc1 [Compound 79] | > 5.52 | < 5.00 | 5.00 to 5.52 | > 5.52
